Values joined by “and” are separate entries in the source; they are usually repeats but may differ in a detail not shown here. Equal values may be shown once. Read-outs that look alike come from different tables or passages of the source.
Legend:
MOLM-13 cells = assay: Annexin-V staining for apoptosis, wild type MOLM-13; assay type: cell-based, human; conditions: for Treatment-induced cell death (annexin-V): vs DMSO; for total apoptosis, flow cytometry: MOLM-13; for Late apoptosis, flow cytometry / Early apoptosis, flow cytometry: WT
Description: Wild type and CRBN^−/− MOLM-13 cells were grown in 12-well plates (TPP, Techno Plastic Products AG) with 500,000 cells per well in 2 ml total media volume. Cells were treated with 1 μl/ml DMSO or 1 μM compound in triplicate, and incubated for 24 or 72 h at 37 °C. To prepare samples, this buffer was used: 10 mM HEPES, 0.14 M NaCl, 2.5 mM CaCl2 pH 7.4, 2% v/v FBS in UltraPure water (Invitrogen). After incubation, samples were collected in 5-ml tubes for flow cytometry (Falcon). Single-stain controls consisted of ~150 μl of multiple samples combined. Wells were washed with 1 ml of buffer that was added to the corresponding sample tube. Cells were centrifuged at 500×g for 5 min at 4 °C to form a pellet. Supernatant was decanted and cells were washed again with 3 ml of buffer, then centrifuged. After decanting the supernatant, 3 μl of APC-conjugated anti-Annexin-V antibody (BioLegend) was added to each tube in the residual buffer left behind. Samples were mixed by vortex and incubated at room temperature in the dark for 20 min. Samples were then washed and centrifuged a final time, decanting the supernatant and blotting the tubes to remove residual buffer. 50 μl of buffer with DAPI was added to all appropriate samples and mixed, then analyzed by flow cytometry.
Supplementary Fig. 13: Gating for Annexin V flow cytometry analysis. Total cells were gated to remove cell debris, followed by single cell gating on the FSC-A/FSC-H diagonal. Within the single […]
Live cells are negative for both fluorescent markers, DAPI positive/APC negative cells are necrotic, APC positive/DAPI negative cells are still alive but in the early stages of apoptosis, and double positive cells are dead via apoptosis. Percentages of early and late apoptosis were plotted in supplementary figures 4 and 5.
(1 picture or pasted object on this page, not shown here)

CK1α = CK1α (Homo sapiens, UniProt P48729+Q96SW2); assay: CK1α immunoblotting in MOLM-13 cells; assay type: cell-based; parameters: immunoblot analysis of CK1α in MOLM-13 cells following treatment with increasing concentrations of SJ7095 over 4 h; endogenous in cells; host or cells: MOLM-13 (DSMZ ACC 554); conditions: for Dmax: read-out: CK1α Dmax (immunoblot); for CK1a western blot quantification: CK1a data from blots in fig 2b
CK1α, sequence (P48729 whole entry, the tested form may be a part): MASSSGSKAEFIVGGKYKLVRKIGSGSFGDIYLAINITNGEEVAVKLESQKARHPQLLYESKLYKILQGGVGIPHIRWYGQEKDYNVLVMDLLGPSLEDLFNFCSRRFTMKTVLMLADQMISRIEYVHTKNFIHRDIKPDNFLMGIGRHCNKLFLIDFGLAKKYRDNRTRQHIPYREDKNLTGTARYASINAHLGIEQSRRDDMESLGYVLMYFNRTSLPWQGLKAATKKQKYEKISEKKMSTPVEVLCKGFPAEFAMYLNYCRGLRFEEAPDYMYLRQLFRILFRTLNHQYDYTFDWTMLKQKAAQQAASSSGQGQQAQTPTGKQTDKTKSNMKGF
CK1α, sequence (Q96SW2 whole entry, the tested form may be a part): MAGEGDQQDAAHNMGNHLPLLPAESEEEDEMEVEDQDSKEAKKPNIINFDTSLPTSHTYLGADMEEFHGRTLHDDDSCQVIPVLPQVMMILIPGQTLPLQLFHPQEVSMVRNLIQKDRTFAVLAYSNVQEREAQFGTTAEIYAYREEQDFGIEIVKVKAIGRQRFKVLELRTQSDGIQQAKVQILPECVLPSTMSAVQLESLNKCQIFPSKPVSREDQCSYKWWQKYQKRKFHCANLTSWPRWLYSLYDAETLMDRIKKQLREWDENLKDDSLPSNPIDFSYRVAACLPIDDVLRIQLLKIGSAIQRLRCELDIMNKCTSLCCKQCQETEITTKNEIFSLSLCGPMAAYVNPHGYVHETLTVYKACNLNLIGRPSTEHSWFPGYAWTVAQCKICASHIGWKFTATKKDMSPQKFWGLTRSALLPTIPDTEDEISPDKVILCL
CK1α, sequence (Q16531 whole entry partner, the tested form may be a part): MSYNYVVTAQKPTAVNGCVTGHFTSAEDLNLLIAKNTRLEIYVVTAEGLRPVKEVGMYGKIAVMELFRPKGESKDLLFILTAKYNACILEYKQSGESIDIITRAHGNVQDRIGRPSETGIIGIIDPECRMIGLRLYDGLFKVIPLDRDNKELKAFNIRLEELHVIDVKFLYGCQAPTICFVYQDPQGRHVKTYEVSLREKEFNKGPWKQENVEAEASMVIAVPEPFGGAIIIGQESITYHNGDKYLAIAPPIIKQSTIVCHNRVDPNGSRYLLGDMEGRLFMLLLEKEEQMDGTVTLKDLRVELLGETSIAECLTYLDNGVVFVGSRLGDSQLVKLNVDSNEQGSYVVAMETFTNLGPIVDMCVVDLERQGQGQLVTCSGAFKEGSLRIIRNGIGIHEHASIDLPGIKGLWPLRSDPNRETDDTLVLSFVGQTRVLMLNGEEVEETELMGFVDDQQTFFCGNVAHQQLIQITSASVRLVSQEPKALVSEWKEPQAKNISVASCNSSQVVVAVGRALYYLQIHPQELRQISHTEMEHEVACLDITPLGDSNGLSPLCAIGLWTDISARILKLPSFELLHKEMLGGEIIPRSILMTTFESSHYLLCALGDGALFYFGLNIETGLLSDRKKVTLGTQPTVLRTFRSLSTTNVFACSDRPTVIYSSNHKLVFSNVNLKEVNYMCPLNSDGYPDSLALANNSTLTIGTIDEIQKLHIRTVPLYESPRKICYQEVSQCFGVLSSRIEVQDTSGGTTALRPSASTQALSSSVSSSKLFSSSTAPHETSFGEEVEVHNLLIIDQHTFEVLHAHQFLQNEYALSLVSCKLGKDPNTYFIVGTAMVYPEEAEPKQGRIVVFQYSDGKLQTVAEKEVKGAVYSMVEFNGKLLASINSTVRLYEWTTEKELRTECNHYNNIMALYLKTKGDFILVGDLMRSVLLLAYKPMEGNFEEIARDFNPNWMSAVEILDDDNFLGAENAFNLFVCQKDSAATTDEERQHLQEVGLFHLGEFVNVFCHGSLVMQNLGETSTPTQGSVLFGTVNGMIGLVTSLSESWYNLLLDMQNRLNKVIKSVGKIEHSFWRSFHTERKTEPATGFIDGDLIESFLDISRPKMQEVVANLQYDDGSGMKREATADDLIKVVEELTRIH
Description: Frozen pellets of ~1 million cells were lysed in 150 µl of SDS lysis buffer (60 mM Tris/HCl pH 7, 10% glycerol, 2% SDS, 5% beta-mercaptoethanol, 0.02% bromophenol blue, 0.5% protease and phosphatase inhibitor cocktail (Sigma Aldrich)). When cells were resuspended, samples were heated for 3 min at 99 °C then put on ice. Samples were then fragmented by sonication for 10 0.5-s pulses (550 Sonic Dismembrator, Fisher Scientific) and heated again at 99 °C for 2 min. 15 μl of each sample was added to the wells of a 4–20% polyacrylamide gel (Bio-Rad). A mixture of 2 μl of Precision Plus Protein Unstained Standards and 2 μl of Precision Plus Protein All Blue Standards (Bio-Rad) was used for the size marker. After electrophoresis, gels were transferred to nitrocellulose membrane using the Bio-Rad Trans-Blot Turbo system on the mixed molecular weight setting. Membranes were blocked for 1 h in Li-Cor Intercept Blocking Buffer then probed overnight at 4 °C with primary antibody, at 1:1000 dilution or 1:2000 dilution for actin, in Li-Cor Intercept Antibody Diluent. The following morning, membranes were washed three times for 5 min with TBS + 0.05% Tween-20, probed with fluorescent secondary antibodies (goat anti-rabbit IRDye 800CW and goat anti-mouse IRDye 680RD, Li-Cor) for 1 h at room temperature in the dark at 1:10,000 dilution, and washed again 3 times. Blots were imaged with the Li-Cor Odyssey CLx and analyzed using Image Studio Version 5.2.

[1] = MOLM-13, 4 h, read-out: CK1α DC50 (immunoblot)
[2] = time course 0-8 hrs, relative to no treatment
[3] = western blot quantification, relative to DMSO

SMILES: O=C1CCC(N2Cc3c(CNC(=O)c4ccc(F)cc4)cccc3C2=O)C(=O)N1 (stereo not drawn) [SJ7095]
- Treatment-induced cell death (annexin-V) (MOLM-13 cells; 1 μM, 72 h): increased cell death
- total apoptosis, flow cytometry (MOLM-13 cells; SI_Fig 4c, DMSO 9.7, 8.6, 9.8): 14.9 and 14.2 and 11
- total apoptosis, flow cytometry (MOLM-13 cells; SI_Fig 5c, DMSO 8, 7.6, 6.1): 18.3 and 22.4 and 27.2
- Late apoptosis, flow cytometry (MOLM-13 cells; SI_Fig 4b, DMSO 3, 2.7, 3): 4.8 and 4.2 and 3.7
- Early apoptosis, flow cytometry (MOLM-13 cells; SI_Fig 4b, DMSO 6.8, 5.8, 6.8): 10.1 and 7.2
- Late apoptosis, flow cytometry (MOLM-13 cells; SI_Fig 5b, DMSO 1.5, 1.2, 1.2): 4.9 and 6.3 and 8.6
- Early apoptosis, flow cytometry (MOLM-13 cells; SI_Fig 5b, DMSO 6.5, 6.4, 4.9): 13.4 and 16.1 and 18.6
- CK1α degradation (CK1α; MOLM-13, 100 nM, 4 h): near complete degradation of CK1α
- DC50 (CK1α; [1]): 15 nM

SMILES: O=C1CCC(N2Cc3cc(Nc4noc5ccccc45)ccc3C2=O)C(=O)N1 (stereo not drawn) [SJ3149]
- Cells dead or dying (annexin-V) (MOLM-13 cells; 1 μM, 72 h): ~ 80%
- Treatment-induced cell death (annexin-V) (MOLM-13 cells; 1 μM, 72 h): increased cell death
- total apoptosis, flow cytometry (MOLM-13 cells; SI_Fig 4c, DMSO 9.7, 8.6, 9.8): 30.6 and 31.3 and 31.4
- total apoptosis, flow cytometry (MOLM-13 cells; SI_Fig 5c, DMSO 8, 7.6, 6.1): 81.1 and 51.1 and 84.7
- Late apoptosis, flow cytometry (MOLM-13 cells; SI_Fig 4b, DMSO 3, 2.7, 3): 8.5 and 9.4 and 9.1
- Early apoptosis, flow cytometry (MOLM-13 cells; SI_Fig 4b, DMSO 6.8, 5.8, 6.8): 22.2 and 21.9 and 22.3
- Late apoptosis, flow cytometry (MOLM-13 cells; SI_Fig 5b, DMSO 1.5, 1.2, 1.2): 37.1 and 24.3 and 39.1
- Early apoptosis, flow cytometry (MOLM-13 cells; SI_Fig 5b, DMSO 6.5, 6.4, 4.9): 44 and 26.8 and 45.7
- CK1α protein, time course (CK1α; MOLM-13, 1 μM, 0-8 h): near complete loss of CK1α protein by 1 h
- DC50 (CK1α; [1]): 3.7 nM and 4 nM
- Dmax (CK1α; MOLM-13, 4 h): 95%
- CK1a western blot quantification (CK1α; SJ3149 0.001 uM, relative to DMSO): 0.9925 and 0.9819 and 0.7065
- CK1a western blot quantification (CK1α; SJ3149 0.01 uM, relative to DMSO): 0.3125 and 0.2648 and 0.1727
- CK1a western blot quantification (CK1α; SJ3149 0.1 uM, relative to DMSO): 0.1087 and 0.1074 and 0.06013
- CK1a quantified protein expression (western blot) (CK1α; time 8 hrs, relative to no treatment, 3 western blots): 0.0615 and 0.09529 and 0.04877
- IC50 (line fit, sigmoidal 4PL) of CK1a expression versus time (CK1α; time course 0-8 hrs, X axis is time): 0.403
- Bottom (line fit, sigmoidal 4PL) of CK1a expression versus time (CK1α; [2]): 0.04517
- Top (line fit, sigmoidal 4PL) of CK1a expression versus time (CK1α; [2]): 0.8089
- DC50 (CK1α; western blot quantification, blots in fig 2b, read-out: IC50 (sigmoidal 4PL fit) of CK1a protein level): 3.75 nM
- Bottom (sigmoidal 4PL fit) of CK1a protein level (CK1α; [3]): 0.07909
- Top (sigmoidal 4PL fit) of CK1a protein level (CK1α; [3]): 1.004

SMILES: Cc1cccc(C(=O)Nc2ccc3c(c2)CN(C2CCC(=O)NC2=O)C3=O)c1 (stereo not drawn) [SJ0040]
- Treatment-induced cell death (annexin-V) (MOLM-13 cells; 1 μM, 72 h): increased cell death
- total apoptosis, flow cytometry (MOLM-13 cells; SI_Fig 4c, DMSO 9.7, 8.6, 9.8): 14.9 and 12.6 and 13.6
- total apoptosis, flow cytometry (MOLM-13 cells; SI_Fig 5c, DMSO 8, 7.6, 6.1): 33.8 and 33.6 and 34.8
- Late apoptosis, flow cytometry (MOLM-13 cells; SI_Fig 4b, DMSO 3, 2.7, 3): 4.1 and 3.7 and 4.5
- Early apoptosis, flow cytometry (MOLM-13 cells; SI_Fig 4b, DMSO 6.8, 5.8, 6.8): 10.8 and 9 and 9.1
- Late apoptosis, flow cytometry (MOLM-13 cells; SI_Fig 5b, DMSO 1.5, 1.2, 1.2): 11.1 and 11.7 and 11.8
- Early apoptosis, flow cytometry (MOLM-13 cells; SI_Fig 5b, DMSO 6.5, 6.4, 4.9): 22.7 and 21.8 and 23.1
- DC50 (CK1α; [1]): 11 nM
- Dmax (CK1α; MOLM-13, 4 h): 88%
